Data as given in US11708283B2, “Metal-chelating compositions and their use in methods of removing or inhibiting barium scale” (CORNELL UNIVERSITY, priority 2018, dated 2023).
Like-named read-outs stand apart in the source and are kept apart here.

What was measured:
[1] = Thermodynamic stability constants of Ba^2+ complexes by pH-potentiometry; assay type: binding; settings: for pBa (−log [M^2+]free): [M^2+] = 10^−6M, [L] = 10^−5M; for pBa (−log [M^2+]free) / log KBaH2L / log KBaHL / log KBaL / major species present at pH 7.4 in the presence of Ba^2+: 25° C.; for pBa (−log [M^2+]free) / log K′Ba (conditional stability constant) / log KBaH2L / log KBaHL / log KBaL: I = 0.1M KCl; for log K′Ba (conditional stability constant): pH 7.4, 25° C., calculated from protonation and stability constants; for log KBaH2L / log KBaHL / log KBaL: pH-potentiometry; for major species present at pH 7.4 in the presence of Ba^2+: speciation, [Ba^2+]tot=[L]tot=1.0 mM, I=0.1 M KCl
Description: Potentiometric measurements were carried out using a titrator equipped with a combination electrode and an exchange unit with an automatic burette (10 mL). The titration vessel was fitted with a removable glass cell (˜70 mL) and was thermostated at 25° C. using a circulating water bath. CO2 was excluded from the vessel prior to and during the titrations using a small positive pressure of Ar that was passed through a solution of 30 wt % KOH. […] Hydrochloric acid (0.1 M) was standardized against freshly prepared KOH. […] Before every titration, the electrode was calibrated in terms of hydrogen ion concentration by titrating a solution of standardized HCl (5 mM) containing supporting electrolyte (95 mM) with standardized KOH (2 mL).
ICP standards of calcium, strontium, and barium in dilute HNO3 were employed in the titrations. […] Stability constants were measured for the alkaline earth complexes of macropa^2− and macropaquin^2− by adding standardized KOH to a solution (20 mL) containing ligand (0.02 mmol), metal (0.02 mmol), 1 M KCl (1.9 mmol), and a portion of 0.1 M HCl sufficient to bring the total acid content (HCl+HNO3) to 0.1 mmol. The titration method employed either a 0.1 mV/min or 0.2 mV/min drift limit with a maximum wait time of 300 seconds between addition of base and measurement. […] These pH ranges reflect the portion of the titration curves in which metal binding is occurring. Using the protonation constants measured for each ligand, the stability constants (Equations 2-4, below) were calculated from the average of at least 3 independent titrations using appropriate software. Proton concentration was admitted as a refineable parameter. […] The errors given for the stability constants correspond to one standard deviation.
The alkaline earth stability constants for macroquin-SO3^4− were determined using a system in which each ligand titration was paired with a ligand-metal titration. These pairwise titrations permitted the ligand concentration for the metal-ligand titrations to be known with reasonable certainty from the refinement of the ligand-only titrations. […] The same titration method was employed as described above for macropa^2− and macropaquin^2−. […] Stability constants were calculated as described above.
Log conditional constants (log K′) of the alkaline earth complexes at pH 7.4 were calculated using the experimentally determined protonation and stability constants. These constants are expressed by the following equation:
In the above equation, [(ML)′]=[ML]+[MHL]+[MH2L], and [HnL]=[L], [HL], [H2L] . . . [HnL].

[2] = Dissolution of barium sulfate suspension (GFAAS); settings: for BaSO4 dissolved: 30 minutes
Description: First, a suspension of BaSO4 in pH 8 NaHCO3 was formed by combining Ba(NO3)2 (4.53 mM) with excess Na2SO4 (13.48 mM), simulating the mixing of incompatible waters that produces BaSO4 scale in petroleum operations. The resulting BaSO4 suspension was treated with ligand (5 mM), and the amount of dissolved Ba^2+ was measured by GFAAS.
More specifically. BaSO4 dissolution experiments at pH 8 were performed in NaHCO3 (1 M, pH=7.9-8.0); dissolution studies at pH 11 were performed in Na2CO3 (1 M, pH adjusted to 10.98 using concentrated HCl). […] The concentration of the DOTA stock solution was calculated from the mass of the ligand used (255.5 mg). A solution of Na2SO4 (293 mM) was prepared in water. The barium source for this experiment was an ICP standard solution of Ba(NO3)2 (72.99 mM; 10023 μg/mL) in 2% v/v HNO3.
Dissolution studies were carried out in 2 mL borosilicate vials equipped with identical magnetic stir bars (6.4×3 mm). Each BaSO4 suspension was prepared independently by mixing Ba(NO3)2 and Na2SO4 in 1 M NaHCO3 or Na2CO3 to give final concentrations of 4.53 mM (621,426 μg/L) and 13.48 mM, respectively. Dissolution was initiated by the addition of an aliquot of ligand (5 mM final concentration, 1.1 equiv with respect to Ba^2+) to each suspension. Controls (pH 8) received an aliquot of water instead of ligand. The suspensions were stirred at room temperature (22±1° C.) at a rate of 550 RPM. At time points of 5 min (pH 11 only), 10 min, 20 min, and 30 min, the suspensions were filtered through nylon syringe filters (either 0.2 μm or 0.22 μm), and the filtrates were analyzed as described below. The dissolution experiments were performed in triplicate at every time point for each ligand except DOTA, for which 6 replicates were run for 20 min and 30 min time points at pH 8.
The filtered samples were diluted 6565-fold (65×101) with water and analyzed for barium content by GFAAS using the furnace method and instrument parameters discussed earlier above. Standards containing both ligand and barium at the same concentrations employed in the dissolution studies were prepared in either NaHCO3 (pH 8) or Na2CO3 (pH 11); water was substituted for Na2SO4. […] Water was used as the diluent. Following calibration, each sample was analyzed in triplicate and averaged. After the analysis of every three samples, a single measurement of water was made to ensure that there was no carryover of barium. After every three (pH 11) or six (pH 8) samples were analyzed, an independently-prepared Ba-L standard was analyzed a maximum of two times as a quality control check. If the measurement was not within ±10% of the known concentration of barium, the instrument was re-calibrated and the data between the failed calibration check and the previous calibration check was excluded. Data from each time point were averaged and the results are reported as the percentage of barium dissolved. The errors given correspond to 1 standard deviation.

[3] = literature values, cited from earlier work; for log Ka1 / log Ka2 / log Ka3 / log Ka4: I = 0.1M KCl (footnotes b, c, d)
[4] = cited from earlier work
[5] = cited from earlier work; remark: listed apart in the source
[6] = literature values (footnotes b, c); cited from earlier work
[7] = literature values (footnotes b, c)
[8] = bracketed literature value, I = 0.1M KNO3 (footnote e)

| Compound | pBa (−log [M^2+]free) ([1]; pH 7.4) | log K′Ba (conditional stability constant) [1] | BaSO4 dissolved ([2]; pH 8, RT, 5 mM ligand) | log Ka1 [3] | log Ka2 [3] | log Ka3 [3] | log Ka4 [3] | log KBaH2L [1] | log KBaHL [1] | log KBaL [1] | major species present at pH 7.4 in the presence of Ba^2+ [1] | further results |
| --- | --- | --- | --- | --- | --- | --- | --- | --- | --- | --- | --- | --- |
| O=C(O)CN1CCN(CC(=O)O)CCN(CC(=O)O)CCN(CC(=O)O)CC1 [DOTA, reference compound] | 6.76 | 5.72 | 40% | 11.14 | 9.69 | 4.85 | 3.95 | – | – | – | – | BaSO4 dissolution ([2]; pH 11, 30 min): 75%; log KCaHL [4, 7]: 3.60; log KSrHL [5, 7]: 4.52; log KBaL [6]: 11.75 |
| O=C(O)c1cccc(CN2CCOCCOCCN(Cc3cccc(C(=O)O)n3)CCOCCOCC2)n1 [macropa, 6,6-((1,4,10,13-tetraoxa-7,16-diazacyclooctadecane-7,16-diyl)bis(methylene))dipicolinic acid] | 11.69 | 10.74 | complete dissolution | (7.41)^d | (6.85) | (3.32) | (2.36) | 2.49(7) | 3.76(2) | 11.11 | – | log KBaL lower than that for DOTA by [1]: 0.64 log units; Ba^2+ bound by ligand ([1]; pH 4.0, speciation): 90%; Ba^2+ complexed by ligand ([1]; pH 5.1, speciation): 99%; log K′Ba greater than those for DOTA and DTPA by ([1]; pH 7.4): 5-6 orders of magnitude; selectivity for Ba^2+ over Ca^2+ (ratio of pM values) ([1]; pH 7.4): 1.79 fold; selectivity for Ba^2+ over Sr^2+ (ratio of pM values) ([1]; pH 7.4): 1.17 fold; BaSO4 solubilized ([2]; pH 8, RT, 5 mM ligand, 10 minutes): 78%; BaSO4 solubilized ([2]; pH 11, 5 min): > 95%; log Ka5 ([3]; I = 0.1M KCl (footnotes c, d)): (1.69); log KCaL [4, 8]: [5.25]^e; log KSrHL [5, 8]: [4.16]; log KSrL [5, 8]: [9.57] |
| O=C(O)c1cccc(CN2CCOCCOCCN(Cc3ccc4cccc(O)c4n3)CCOCCOCC2)n1 [macropaquin, 6-((16-((8-hydroxyquinolin-2-yl)methyl)-1,4,10,13-tetraoxa-7,16-diazacyclooctadecan-7-yl)methyl)picolinic acid] | 11.01 | 10.05 | 95% | – | – | – | – | 3.28(2) | 9.76(2) | 10.87 | MHL | – |
| O=S(=O)(O)c1ccc(O)c2nc(CN3CCOCCOCCN(Cc4ccc5c(S(=O)(=O)O)ccc(O)c5n4)CCOCCOCC3)ccc12 [macroquin-SO3, 2,2′-((1,4,10,13-tetraoxa-7,16-diazacyclooctadecane-7,16-diyl)bis(methylene))bis(8-hydroxyquinoline-5-sulfonic acid)] | 9.72 | 8.76 | – | – | – | – | – | 7.80(2) | 9.24(7) | 10.44 | MH2L | – |
